Where two headings read alike, the source gives them in different places.
Assays:
Type in all cases: biochemical
recombinant human PREP = target: T1, recombinant human PREP (Homo sapiens, UniProt P48147); experiment: PREP inhibition, fluorogenic substrate Z-Gly-Pro-AMC; settings: Inhibitory Activity (IC50, nM) PREP
T1 construct: purchased R&D System
T1 sequence (P48147 1-710): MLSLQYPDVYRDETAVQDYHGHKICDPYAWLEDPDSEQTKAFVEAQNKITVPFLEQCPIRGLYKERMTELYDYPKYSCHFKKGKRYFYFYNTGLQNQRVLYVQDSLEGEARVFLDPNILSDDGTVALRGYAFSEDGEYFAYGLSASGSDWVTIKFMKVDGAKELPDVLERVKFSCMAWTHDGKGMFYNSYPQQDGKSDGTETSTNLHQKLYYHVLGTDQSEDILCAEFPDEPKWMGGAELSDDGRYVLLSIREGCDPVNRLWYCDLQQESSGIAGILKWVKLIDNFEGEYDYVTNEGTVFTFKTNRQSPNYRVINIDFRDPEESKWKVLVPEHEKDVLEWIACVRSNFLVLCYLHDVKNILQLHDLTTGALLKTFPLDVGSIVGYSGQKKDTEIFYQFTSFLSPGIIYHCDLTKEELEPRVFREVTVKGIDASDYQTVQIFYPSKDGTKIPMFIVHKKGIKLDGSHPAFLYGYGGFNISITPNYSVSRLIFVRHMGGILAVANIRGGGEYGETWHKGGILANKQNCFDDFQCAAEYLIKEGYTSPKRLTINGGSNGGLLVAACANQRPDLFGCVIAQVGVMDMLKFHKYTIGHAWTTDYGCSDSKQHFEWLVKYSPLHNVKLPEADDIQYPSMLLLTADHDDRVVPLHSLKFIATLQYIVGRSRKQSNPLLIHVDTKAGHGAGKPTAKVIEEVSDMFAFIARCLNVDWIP
In short: (§1)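 Enzyme per reaction: 50 ng DPP9, 20 ng DPP8, 10 ng each DPP7 and PREP. Compounds were serially diluted (8 points, up to 0.5% DMSO) and incubated at 25 °C.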

Recombinant human FAP = target: T2, Recombinant human FAP (Homo sapiens, UniProt Q12884); experiment: FAP inhibition, fluorogenic substrate Z-Gly-Pro-AMC
T2 construct: purchased R&D systems
T2 sequence (Q12884 1-760): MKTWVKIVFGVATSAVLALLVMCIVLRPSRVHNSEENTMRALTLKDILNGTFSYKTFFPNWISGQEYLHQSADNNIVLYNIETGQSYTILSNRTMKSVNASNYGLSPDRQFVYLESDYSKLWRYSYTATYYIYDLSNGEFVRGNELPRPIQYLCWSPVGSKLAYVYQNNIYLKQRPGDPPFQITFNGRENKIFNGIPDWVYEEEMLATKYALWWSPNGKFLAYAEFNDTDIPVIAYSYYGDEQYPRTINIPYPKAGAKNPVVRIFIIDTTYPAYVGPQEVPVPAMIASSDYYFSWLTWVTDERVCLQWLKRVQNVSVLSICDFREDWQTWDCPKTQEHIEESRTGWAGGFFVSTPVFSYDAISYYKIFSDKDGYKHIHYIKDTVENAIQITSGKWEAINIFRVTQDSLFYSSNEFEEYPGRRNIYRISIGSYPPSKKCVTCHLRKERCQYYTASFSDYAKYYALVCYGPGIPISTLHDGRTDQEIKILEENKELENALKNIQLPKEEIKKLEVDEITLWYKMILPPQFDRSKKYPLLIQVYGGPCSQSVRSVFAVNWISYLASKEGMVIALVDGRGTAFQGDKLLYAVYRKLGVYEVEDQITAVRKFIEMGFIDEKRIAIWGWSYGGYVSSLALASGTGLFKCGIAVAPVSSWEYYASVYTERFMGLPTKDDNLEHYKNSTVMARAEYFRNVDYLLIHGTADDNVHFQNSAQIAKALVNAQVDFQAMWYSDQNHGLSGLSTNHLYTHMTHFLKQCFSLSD
In short: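 Recombinant human FAP, 10 ng per reaction, in 50 mM Tris pH 7.5 with 1 M NaCl and 1 mg/ml BSA at 25° C; substrate Z-Gly-Pro-AMC, ≤0.1% DMSO. AMC fluorescence read at ex 380/em 460 nm; % signal-rate decrease vs no-inhibitor control, 8-point curves fitted to a four-parameter logistic for IC50.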

recombinant human DPP8 = target: T3, recombinant human DPP8 (Homo sapiens, UniProt Q6V1X1); experiment: DPP8 inhibition, fluorogenic substrate Z-Ala-Pro-AMC
T3 construct: purchased PBS Bioscience
T3 sequence (Q6V1X1 whole entry): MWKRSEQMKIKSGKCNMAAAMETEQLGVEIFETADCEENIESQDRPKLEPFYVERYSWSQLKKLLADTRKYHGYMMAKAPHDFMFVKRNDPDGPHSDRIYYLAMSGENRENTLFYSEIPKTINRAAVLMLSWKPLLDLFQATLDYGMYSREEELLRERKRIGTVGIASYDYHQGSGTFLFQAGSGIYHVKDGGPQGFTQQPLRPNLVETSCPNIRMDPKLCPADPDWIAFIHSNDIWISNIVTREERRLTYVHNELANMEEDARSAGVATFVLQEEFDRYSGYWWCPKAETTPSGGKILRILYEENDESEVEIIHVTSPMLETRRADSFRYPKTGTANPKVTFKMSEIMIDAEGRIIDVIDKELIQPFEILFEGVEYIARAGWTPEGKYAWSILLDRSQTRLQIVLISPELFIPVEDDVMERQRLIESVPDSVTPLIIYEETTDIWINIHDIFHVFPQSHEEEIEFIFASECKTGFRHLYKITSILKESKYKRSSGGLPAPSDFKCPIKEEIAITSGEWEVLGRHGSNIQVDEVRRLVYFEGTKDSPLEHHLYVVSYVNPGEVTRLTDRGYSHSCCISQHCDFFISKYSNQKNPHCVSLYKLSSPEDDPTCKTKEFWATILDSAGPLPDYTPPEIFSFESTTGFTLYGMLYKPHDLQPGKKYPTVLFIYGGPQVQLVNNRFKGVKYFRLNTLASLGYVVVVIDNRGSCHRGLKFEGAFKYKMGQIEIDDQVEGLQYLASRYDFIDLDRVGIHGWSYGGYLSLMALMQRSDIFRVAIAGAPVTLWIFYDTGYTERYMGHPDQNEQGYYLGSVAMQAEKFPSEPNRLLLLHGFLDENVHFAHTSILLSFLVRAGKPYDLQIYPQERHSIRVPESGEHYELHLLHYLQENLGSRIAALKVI
In short: as §1

DPP4 = DPP4 (Homo sapiens, UniProt P27487); experiment: DPP4 inhibition, fluorogenic substrate H-Gly-Pro-AMC; parameters: purchased R&D Systems
Chain of DPP4 (P27487 whole entry): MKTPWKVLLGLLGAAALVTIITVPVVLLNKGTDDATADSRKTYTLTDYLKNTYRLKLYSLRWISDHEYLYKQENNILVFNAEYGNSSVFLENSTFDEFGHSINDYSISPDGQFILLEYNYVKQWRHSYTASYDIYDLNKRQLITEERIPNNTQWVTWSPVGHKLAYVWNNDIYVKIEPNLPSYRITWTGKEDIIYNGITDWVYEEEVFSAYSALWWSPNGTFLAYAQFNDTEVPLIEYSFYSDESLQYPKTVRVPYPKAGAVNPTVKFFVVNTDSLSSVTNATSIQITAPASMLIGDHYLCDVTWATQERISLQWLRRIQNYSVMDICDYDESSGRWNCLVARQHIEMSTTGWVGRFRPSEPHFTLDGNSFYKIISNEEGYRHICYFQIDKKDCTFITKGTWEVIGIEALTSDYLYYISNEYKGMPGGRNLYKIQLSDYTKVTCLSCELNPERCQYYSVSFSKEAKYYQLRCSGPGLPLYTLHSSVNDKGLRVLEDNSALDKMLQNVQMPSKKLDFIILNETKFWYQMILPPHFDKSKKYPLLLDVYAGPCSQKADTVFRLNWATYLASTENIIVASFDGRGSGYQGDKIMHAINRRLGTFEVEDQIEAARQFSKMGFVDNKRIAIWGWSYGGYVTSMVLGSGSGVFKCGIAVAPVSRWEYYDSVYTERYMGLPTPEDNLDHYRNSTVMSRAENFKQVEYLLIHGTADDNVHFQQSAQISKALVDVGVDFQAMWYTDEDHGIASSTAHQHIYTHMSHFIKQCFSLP

recombinant human DPP7 = target: T4, recombinant human DPP7 (Homo sapiens, UniProt Q9UHL4); experiment: DPP7 inhibition, fluorogenic substrate Lys-Pro-AMC
T4 construct: purchased R&D Systems
In short: as §1

recombinant human DPP9 = target: T5, recombinant human DPP9 (Homo sapiens, UniProt Q86TI2); experiment: DPP9 inhibition, fluorogenic substrate H-Gly-Pro-AMC
T5 construct: purchased R&D Systems
T5 sequence (Q86TI2 whole entry): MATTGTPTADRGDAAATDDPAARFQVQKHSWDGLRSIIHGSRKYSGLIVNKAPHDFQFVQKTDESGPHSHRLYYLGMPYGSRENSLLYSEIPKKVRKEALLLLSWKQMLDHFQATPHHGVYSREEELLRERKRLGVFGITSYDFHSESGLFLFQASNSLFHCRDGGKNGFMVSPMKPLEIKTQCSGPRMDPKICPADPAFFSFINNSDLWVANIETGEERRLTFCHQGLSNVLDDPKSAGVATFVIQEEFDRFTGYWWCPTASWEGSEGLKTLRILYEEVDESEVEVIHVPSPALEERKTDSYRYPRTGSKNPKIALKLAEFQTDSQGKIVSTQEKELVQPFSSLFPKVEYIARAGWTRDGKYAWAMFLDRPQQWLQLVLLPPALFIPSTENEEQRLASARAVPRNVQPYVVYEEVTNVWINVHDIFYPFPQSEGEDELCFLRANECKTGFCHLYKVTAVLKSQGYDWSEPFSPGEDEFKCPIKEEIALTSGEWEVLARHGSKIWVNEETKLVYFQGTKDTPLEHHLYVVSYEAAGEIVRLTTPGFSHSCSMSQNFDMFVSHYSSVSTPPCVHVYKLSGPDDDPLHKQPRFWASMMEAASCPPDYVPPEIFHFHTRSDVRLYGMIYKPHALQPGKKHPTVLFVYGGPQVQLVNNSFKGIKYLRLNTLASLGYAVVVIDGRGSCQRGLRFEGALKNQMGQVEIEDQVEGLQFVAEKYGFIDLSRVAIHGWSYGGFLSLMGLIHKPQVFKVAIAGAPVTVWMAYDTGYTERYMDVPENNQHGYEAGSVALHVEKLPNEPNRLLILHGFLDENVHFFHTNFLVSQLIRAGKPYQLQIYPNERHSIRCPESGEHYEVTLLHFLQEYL
In short: as §1

[1] = recombinant human FAP, substrate Z-Gly-Pro-AMC
[2] = 25° C., Z-Gly-Pro-AMC substrate
[3] = 25° C., Z-Ala-Pro-AMC substrate
[4] = 25° C., H-Gly-Pro-AMC substrate

In the case of `CN(c1ccc2ncccc2c1)C1CCN(CC(=O)N2C[C@@H](F)C[C@H]2C#N)CC1` [Example 315, (2S,4S)-4-fluoro-1-[2-[4-[methyl(6-quinolyl)amino]-1-piperidyl]acetyl]pyrrolidine-2-carbonitrile], the IC50 (recombinant human PREP; recombinant human PREP) is reported as 134 nM, the IC50 (Recombinant human FAP; [1]) is reported as 0.0017 µM and the IC50 (recombinant human DPP8; recombinant human DPP8) is reported as > 10 µM. For the same molecule, the IC50 (DPP4; recombinant human DPP4) was 9.15 µM, the IC50 (recombinant human DPP7; recombinant human DPP7) was 1.05 µM and the IC50 (recombinant human DPP9; recombinant human DPP9) was 5.77 µM.

`COc1cnc2cccc(N[C@H]3CCN(CC(=O)N4C[C@@H](F)C[C@H]4C#N)C3)c2c1` [Example 254, (2S,4S)-4-fluoro-1-[2-[(3S)-3-[(3-methoxy-5-quinolyl)amino]pyrrolidin-1-yl]acetyl]pyrrolidine-2-carbonitrile] was tested, and the IC50 (recombinant human PREP; recombinant human PREP) was 275 nM, the IC50 (Recombinant human FAP; [1]) was 0.0021 µM and the IC50 (recombinant human DPP8; recombinant human DPP8) was 12.2 µM. For the same molecule, the IC50 (DPP4; recombinant human DPP4) was 4.71 µM, the IC50 (recombinant human DPP7; recombinant human DPP7) was 1.4 µM and the IC50 (recombinant human DPP9; recombinant human DPP9) was 13.1 µM.

With `N#C[C@@H]1C[C@H](F)CN1C(=O)CN1CC[C@H](Nc2cc(F)cc3ncccc23)C1` [Example 269, (2S,4S)-4-fluoro-1-[2-[(3S)-3-[(7-fluoro-5-quinolyl)amino]pyrrolidin-1-yl]acetyl]pyrrolidine-2-carbonitrile] the IC50 (recombinant human PREP; recombinant human PREP) was 2310 nM, the IC50 (Recombinant human FAP; [1]) was 0.0012 µM and the IC50 (recombinant human DPP8; recombinant human DPP8) was 7.18 µM. It also gave an IC50 (DPP4; recombinant human DPP4) of 2.84 µM, an IC50 (recombinant human DPP7; recombinant human DPP7) of 0.812 µM and an IC50 (recombinant human DPP9; recombinant human DPP9) of 4.92 µM.

Molecule `N#C[C@@H]1CCCN1C(=O)CN1CC[C@H](Nc2ccc(OCc3ccccc3)c3ncccc23)C1` [Example 248, (2S)-1-[2-[(3S)-3-[(8-benzyloxy-5-quinolyl)amino]pyrrolidin-1-yl]acetyl]pyrrolidine-2-carbonitrile] has an IC50 (recombinant human PREP; recombinant human PREP) of 6160 nM, an IC50 (Recombinant human FAP; [1]) of 0.0031 µM and an IC50 (recombinant human DPP8; recombinant human DPP8) of 5.34 µM. It also gave an IC50 (DPP4; recombinant human DPP4) of 7.07 µM, an IC50 (recombinant human DPP7; recombinant human DPP7) of 0.81 µM and an IC50 (recombinant human DPP9; recombinant human DPP9) of 3.68 µM.

`N#C[C@@H]1C[C@H](F)CN1C(=O)CN1CCC(Oc2cc(C(F)(F)F)nc3ccccc23)CC1` [Example 412, (2S,4S)-4-fluoro-1-[2-[4-[[2-(trifluoromethyl)-4-quinolyl]oxy]-1-piperidyl]acetyl]pyrrolidine-2-carbonitrile] was tested, and the IC50 (recombinant human PREP; recombinant human PREP) was 1280 nM, the IC50 (Recombinant human FAP; [1]) was 0.0059 µM and the IC50 (recombinant human DPP8; recombinant human DPP8) was 12 µM. For the same molecule, the IC50 (DPP4; recombinant human DPP4) was > 10 µM, the IC50 (recombinant human DPP7; recombinant human DPP7) was 10.7 µM and the IC50 (recombinant human DPP9; recombinant human DPP9) was 69.8 µM.

`COc1cc(NC2CCN(CC(=O)N3CCC[C@H]3C#N)CC2)c2cccnc2c1` [Example 124, (S)-1-(2-(4-((7-methoxyquinolin-5-yl)amino)piperidin-1-yl)acetyl)pyrrolidine-2-carbonitrile] gave an IC50 (recombinant human PREP; [2]) of 16100 nM, an IC50 (Recombinant human FAP; [2]) of 0.00381 µM and an IC50 (recombinant human DPP8; [3]) of 46.8 µM. The IC50 (DPP4; [4]) was > 10 µM, the IC50 (recombinant human DPP7) was 0.518 µM and the IC50 (recombinant human DPP9; [4]) was 82.7 µM.

For `N#C[C@@H]1CC(F)(F)CN1C(=O)CN1CC[C@H](Nc2ccccc2-c2ccccc2)C1` [Example 13, (S)-1-(2-((S)-3-([1,1′-biphenyl]-2-ylamino)pyrrolidin-1-yl)acetyl)-4,4-difluoropyrrolidine-2-carbonitrile], the IC50 (recombinant human PREP; [2]) was > 100000 nM, the IC50 (Recombinant human FAP; [2]) was 0.0246 µM and the IC50 (recombinant human DPP8; [3]) was 0.163 µM. For the same molecule, the IC50 (DPP4; [4]) was > 1 µM, the IC50 (recombinant human DPP7) was 0.243 µM and the IC50 (recombinant human DPP9; [4]) was 56.5 µM.

In the case of `N#C[C@@H]1C[C@H](F)CN1C(=O)CN1CCC(Oc2ccc3ccncc3c2)CC1` [Example 423, (2S,4S)-4-fluoro-1-[2-[4-(7-isoquinolyloxy)-1-piperidyl]acetyl]pyrrolidine-2-carbonitrile], the IC50 (recombinant human PREP; recombinant human PREP) is reported as 990 nM, the IC50 (Recombinant human FAP; [1]) is reported as 0.0093 µM and the IC50 (recombinant human DPP8; recombinant human DPP8) is reported as 3.46 µM. It also gave an IC50 (DPP4; recombinant human DPP4) of 8.99 µM, an IC50 (recombinant human DPP7; recombinant human DPP7) of 2.05 µM and an IC50 (recombinant human DPP9; recombinant human DPP9) of 9.33 µM.
